According to US4725576A, “Fungicidal polypeptide compositions containing L-histidine and methods for use therefore” (priority 1985, dated 1988):

Legend:
C. albicans = assay: HRP added to growing C. albicans cells (FIG. 1); format: cell-based, Candida albicans; settings: data not shown
Experimental: FIG. 1 is a plot showing the effect of the salivary histidine-rich polypeptide on the growth of C. albicans.
When HRP was not placed in the growth medium initially but was added to growing cells, the following observations were noted (FIG. 1).

Candida Albicans 18804 = assay: Proliferation of Candida albicans 18804 on denture acrylic strips, poly-L-histidine; format: cell-based
Experimental: Denture acrylic was uniformly cut into strips of dimension 1/8 inches×1/8 inches×31/2 inches. Each strip was attached to the inside of the cap of the screw cap tube (13 X 100 mm) such that the bottom of each strip lay 3/8 inches from the bottom of each tube. Tubes containing denture strips were sterilized in the ethylene oxide sterilizer. In this experiment, poly-L-histidine was dissolved in 0.025 M MES buffer, pH 5.2 with heating. As in the previous experiment, denture strips were first pretreated with poly-L-histidine (4 mg per ml) overnight prior to incubation with Candida albicans for 21/4 hours. Strips were then transferred to YSM without poly-histidine (controls) or to YSM containing poly-histidine at 2 mg per ml. Although there was precipitation of the poly-L-histidine in the YSM, strips were incubated for 24 hours until controls had reached an optical density at 600 nm=1.2 corresponding to 10^7 colony-forming units per ml. As in experiment with the L-histidine heptapeptide, strips were then transferred to YSM without poly-L-histidine and the growth curve was followed by monitoring the increase in turbidity.

S. mutans SB = assay: Preincubation in acidic buffer, growth and viability of S. mutans SB; format: cell-based, Streptococcus mutans; settings: for % Loss of Viability / GFU (colony forming units) / O.D. 675 nm: 500 μg/ml
Experimental: ^a S. mutans SB at 5 × 10^5 colony forming units per ml was
suspended and preincubated in MES buffer, pH 5.2, at an ionic strength of
0.025 for 1 and 2 hours at 37° C. Preincubation included various
dilution into Todd Hewitt dialysis growth media.
^b Optical densities were measured after 24 hours and 48 hours (value
in parenthesis) incubation at 37° C. for both 1 and 2 hour
^c Colony forming units were determined in duplicate after 24 hours
for both 1 and 2 hour preincubations. They were also determined after 48
hours on those 2 hour preincubation samples showing zero density (values

[1] = 1 hour preincubation, after 24 hours
[2] = 2 hours preincubation, after 24 hours
[3] = 2 hours preincubation, after 48 hours (in parenthesis)

| Substance | effectiveness on growth of C. albicans compared to HRP (C. albicans) | effectiveness compared to His-7 (Candida Albicans 18804; compare Table 8 to Table 7) | time for which growth is inhibited (Candida Albicans 18804; denture strips, Table 8) [h] | Optical Density at 600 nm (Candida Albicans 18804; strips 4 mg per ml overnight, then YSM with 2 mg per ml 24 hours, then YSM without poly-L-histidine, 0 hours of incubation) | bacteriocidal activity for S. mutans SB (S. mutans SB; 1 or 2 hours preincubation in MES buffer, pH 5.2) | % Loss of Viability (S. mutans SB; [1]) [%] | GFU (colony forming units) (S. mutans SB; [1]) | O.D. 675 nm (S. mutans SB; 1 hour preincubation, after 24 hours incubation) | bacteriocidal effect after 48 hours of incubation (S. mutans SB; 2 hour preincubation in the MES) | % Loss of Viability (S. mutans SB; [2]) [%] | GFU (colony forming units) (S. mutans SB; [2]) | O.D. 675 nm (S. mutans SB; 2 hours preincubation, after 24 hours incubation) | % Loss of Viability (S. mutans SB; [3]) [%] | GFU (colony forming units) (S. mutans SB; [3]) | O.D. 675 nm (S. mutans SB; 2 hours preincubation, after 48 hours incubation (in parenthesis)) | optical densities after 48 hours in the growth media (S. mutans SB; cells previously exposed for 1 hour in the MES buffer) |
| --- | --- | --- | --- | --- | --- | --- | --- | --- | --- | --- | --- | --- | --- | --- | --- | --- |
| Poly-L-histidine | similarly effective to the HRP | even more effective than His-7 | 80 | .02 | – | – | – | – | – | – | – | – | – | – | – | – |
| HEWL: hen egg white lysozyme | – | – | – | – | bacteriocidal activity | 69.0 | 35.5 × 10^9 | 0.08 | continue to be bacteriocidal | 100 | 0 | 0 | 100 | 0 | 0 | attained optical densities similar to the controls |
